Results from patent publication US20150164791A1, “CORNEAL SHAPING” (priority 2005, published 2015).

Experiments:
[1] = system: matrix metalloproteinases; experiment: Activation of matrix metalloproteinases by gatifloxacin (established by the inventor)
MMPs 1, 2 and 8 = conditions: rat corneas; cited from earlier work
MMP's 1, 2, 8 and 9 = conditions: topical; rat cornea; animals with epithelial defects and with intact epithelium; cited from earlier work
[2] = in vivo; cited from earlier work

Question: For COc1c(N2CCNC(C)C2)c(F)cc2c(=O)c(C(=O)O)cn(C3CC3)c12 (stereo not drawn) [gatifloxacin], which “activation of matrix metalloproteinases” value [1] is on record?
Answer: capable of activating matrix metalloproteinases

Question: With O=C(O)Cc1ccccc1Nc1c(Cl)cccc1Cl [Diclofenac] as the molecule, how does the “expression of MMPs 1, 2 and 8” value (MMPs 1, 2 and 8) read?
Answer: induce expression

Question: Which “MMP levels in corneal epithelium and anterior stroma” value (MMP's 1, 2, 8 and 9) does the source give for O=C(O)c1cn(C2CC2)c2cc(N3CCNCC3)c(F)cc2c1=O [ciprofloxacin] here?
Answer: increased

Question: For O=C(c1ccccc1)c1ccc2n1CCC2C(=O)O (stereo not drawn) [ketorolac], which “expression of MMPs 1, 2 and 8” value (MMPs 1, 2 and 8) is on record?
Answer: induce expression

Question: What does the source list for C[C@H]1c2cccc(O)c2C(O)=C2C(=O)[C@]3(O)C(O)=C(C(N)=O)C(=O)[C@@H](N(C)C)[C@@H]3[C@@H](O)[C@@H]21 [doxycyline, doxycycline]?
Answer: corneal penetration [2]: penetrate the cornea well; tolerability [2]: well tolerated
